A word on the mortality: it is the percentage killed. A higher mortality goes with a strong lethal effect.

What all share (format): in vivo
The test system of assay [1] is potato leafhopper (Empoasca fabae (Harris)). In words: Test D: control of potato leafhopper through contact and/or systemic means. As to conditions: 144 h. The protocol:
(§1) Formulation and Spray Methodology for Tests A-H
(§2) Test compounds were formulated using a solution containing 10% acetone, 90% water and 300 ppm Activator 90® non-ionic surfactant (Loveland Products, Loveland, Colo., USA). The formulated compounds were applied in 1 mL of liquid through an atomizer nozzle positioned 1.27 cm (0.5 inches) above the top of each test unit. Test compounds were sprayed at the rates indicated, and each test was replicated three times.
For evaluating control of potato leafhopper (Empoasca fabae (Harris)) through contact and/or systemic means, the test unit consisted of a small open container with a 5-6-day-old Soleil bean plant (primary leaves emerged) inside. White sand was added to the top of the soil, and one of the primary leaves was excised prior to application of the test compound.
Test compounds were formulated and sprayed at 250, 50, 10 and 2 ppm. After spraying of the formulated test compound, the test units were allowed to dry for 1 hour before they were post-infested with 5 potato leafhoppers (18-to-21-day-old adults). A black, screened cap was placed on the top of the test unit, and the test units were held for 6 days in a growth chamber at 20° C. and 70% relative humidity. Each test unit was then visually assessed for insect mortality.

The test system of assay [2] is green peach aphid (Myzus persicae (Sulzer)). Nature of the assay: Test E: control of green peach aphid through contact and/or systemic means. As to conditions: in Raphanus sativus, 144 h. The protocol:
as §1, §2
For evaluating control of green peach aphid (Myzus persicae (Sulzer)) through contact and/or systemic means, the test unit consisted of a small open container with a 12-15-day-old radish plant inside. This was pre-infested by placing on a leaf of the test plant 30-40 aphids on a piece of leaf excised from a culture plant (cut-leaf method). The aphids moved onto the test plant as the leaf piece desiccated. After pre-infestation, the soil of the test unit was covered with a layer of sand.
Test compounds were formulated and sprayed at 250, 50 and 10 ppm. After spraying of the formulated test compound, each test unit was allowed to dry for 1 hour and then a black, screened cap was placed on top. The test units were held for 6 days in a growth chamber at 19-21° C. and 50-70% relative humidity. Each test unit was then visually assessed for insect mortality.

For assay [3], the system named is cotton melon aphid (Aphis gossypii (Glover)). Nature of the assay: Test F: control of cotton melon aphid through contact and/or systemic means. Particulars: 144 h. The protocol:
as §1, §2
For evaluating control of cotton melon aphid (Aphis gossypii (Glover)) through contact and/or systemic means, the test unit consisted of a small open container with a 5-day-old okra plant inside. This was pre-infested with 30-40 insects on a piece of leaf according to the cut-leaf method, and the soil of the test unit was covered with a layer of sand.
Test compounds were formulated and sprayed at 250, 50 and 10 ppm. After spraying, the test units were maintained in a growth chamber for 6 days at 19° C. and 70% relative humidity. Each test unit was then visually assessed for insect mortality.

Assay [4] concerns sweetpotato whitefly (Bemisia tabaci (Gennadius)). In words: Test G: control of sweetpotato whitefly through contact and/or systemic means. As to conditions: in Gossypium hirsutum, 312 h. The protocol:
as §1, §2
For evaluating control of the sweetpotato whitefly (Bemisia tabaci (Gennadius)) through contact and/or systemic means, the test unit consisted of a small open container with a 12-14-day-old cotton plant inside. Prior to the spray application, both cotyledons were removed from the plant, leaving one true leaf for the assay. Adult whiteflies were allowed to lay eggs on the plant and then were removed from the test unit. Cotton plants infested with at least 15 eggs were submitted to the test for spraying.
Test compounds were formulated and sprayed at 250, 50, and 10 ppm. After spraying, the test units were allowed to dry for 1 hour. The cylinders were then removed, and the units were taken to a growth chamber and held for 13 days at 28° C. and 50-70% relative humidity. Each test unit was then visually assessed for insect mortality.

Turning to `COC(=O)CNC(=O)c1ccc(C2=NOC(c3cc(Cl)c(F)c(Cl)c3)(C(F)(F)F)C2)c2ccccc12` (stereo not drawn) [Compound 35, N-[[4-[5-(3,5-dichloro-4-fluorophenyl)-4,5-dihydro-5-(trifluoromethyl)-3-isoxazolyl]-1-naphthalenyl]carbonyl]glycine methyl ester], the mortality at 250 ppm in assay [1], in assay [2] and in assay [3] was no less than 80% each time. In addition, the mortality at 50 ppm in assay [2] and in assay [3] was no less than 80% in each case.
In the case of `CON=CNC(=O)c1ccc(C2=NOC(c3cc(Cl)c(F)c(Cl)c3)(C(F)(F)F)C2)c2ccccc12` (stereo not drawn) [Compound 33, 4-[5-(3,5-dichloro-4-fluorophenyl)-4,5-dihydro-5-(trifluoromethyl)-3-isoxazolyl]-N-[(methoxyimino)methyl]-1-naphthalenecarboxamide], the values for the mortality at 2 ppm in assay [1] and in assay [4] were no less than 80% and no less than 70%, respectively. In addition, the figures for the mortality at 10 ppm in assay [1], in assay [3] and in assay [4] were no less than 80%, no less than 80% and no less than 70%, respectively. Also, the mortality at 50 ppm is no less than 80% in assay [1], no less than 80% in assay [2], no less than 80% in assay [3] and no less than 70% in assay [4].
Consider `O=C(NCc1ccccn1)c1ccc(C2=NOC(c3cc(Cl)c(F)c(Cl)c3)(C(F)(F)F)C2)c2ccccc12` (stereo not drawn) [Compound 15, 4-[5-(3,5-dichloro-4-fluorophenyl)-4,5-dihydro-5-(trifluoromethyl)-3-isoxazolyl]-N-(2-pyridinylmethyl)-1-naphthalenecarboxamide], for which, in assay [1], the mortality at 2 ppm was no less than 80%, the mortality at 10 ppm was no less than 80% and the mortality at 50 ppm is no less than 80%. The molecule also returned a mortality at 50 ppm in assay [4] of no less than 70%.
Take `C[C@@H](NC(=O)c1ccc(C2=NOC(c3cc(Cl)c(F)c(Cl)c3)(C(F)(F)F)C2)c2ccccc12)C(N)=O` (stereo partly drawn) [Compound 1, N-[(1R)-2-amino-1-methyl-2-oxoethyl]-4-[5-(3,5-dichloro-4-fluorophenyl)-4,5-dihydro-5-(trifluoromethyl)-3-isoxazolyl]-1-naphthalenecarboxamide]: the mortality at 50 ppm in assay [1] was no less than 80%. Besides, the mortality at 250 ppm in assay [1] and in assay [3] was no less than 80% each time.

(Values after patent US11576382B2, “Naphthalene isoxazoline compounds for controlling invertebrate pests” (FMC Corporation, priority 2018, dated 2023).)
